One data set deals with resistant vegetative PG. As to conditions: one case, concomitantly with oral prednisone; cited from earlier work.
In data set [1] the test system is conscious, unrestrained ferret. Briefly: Emesis study in ferrets. To be noted: oral, 1, 3, 10 and 30 mg/kg.
For a further data set, the system named is LPS-induced TNF-α. Put plainly: LPS-induced TNF-α in ferrets after single oral administration. To be noted: LPS 3 mg/kg ip.
Data set [2] deals with pyoderma gangrenosum with concomitant HS / PASH syndrome. Briefly: Clinical study in two patients. It counts as in vivo, human. On the procedure: The efficacy of the peroral anti-inflammatory PDE4-inhibitor Orismilast was investigated in two patients, one with pyoderma gangrenosum and concomitant HS, the other with PASH syndrome. Patients received a titrated dose of Orismilast of up to 40 mg twice daily for 16 weeks.

The target of the next data set is PDE4D2 (Homo sapiens, UniProt Q08499). It counts as biochemical. As to conditions: value generated by extrapolation of data. On the procedure: (§1) Enzyme Preparations: Partially purified human recombinant phosphodiesterases (PDEs) were obtained by cloning cDNA and expressing in S. frugiperda insect cells using a baculovirus expression system. Cells are harvested from culture by centrifuging at 400×g for 5 minutes. Cell pellet is resuspended in 20 ml of RIPA Buffer (150 mM NaCl, 10 mM Tris, 0.1% NP-40, pH8.3), 4 ml/200 ml of culture, plus protease inhibitors (100 μl/10 ml) and incubated on ice for 10-20 minutes then spun at 3500×g for 10 minutes at 4° C. Supernatant is kept and the pellet thrown away.
PDE4D2, sequence (Q08499 303-809): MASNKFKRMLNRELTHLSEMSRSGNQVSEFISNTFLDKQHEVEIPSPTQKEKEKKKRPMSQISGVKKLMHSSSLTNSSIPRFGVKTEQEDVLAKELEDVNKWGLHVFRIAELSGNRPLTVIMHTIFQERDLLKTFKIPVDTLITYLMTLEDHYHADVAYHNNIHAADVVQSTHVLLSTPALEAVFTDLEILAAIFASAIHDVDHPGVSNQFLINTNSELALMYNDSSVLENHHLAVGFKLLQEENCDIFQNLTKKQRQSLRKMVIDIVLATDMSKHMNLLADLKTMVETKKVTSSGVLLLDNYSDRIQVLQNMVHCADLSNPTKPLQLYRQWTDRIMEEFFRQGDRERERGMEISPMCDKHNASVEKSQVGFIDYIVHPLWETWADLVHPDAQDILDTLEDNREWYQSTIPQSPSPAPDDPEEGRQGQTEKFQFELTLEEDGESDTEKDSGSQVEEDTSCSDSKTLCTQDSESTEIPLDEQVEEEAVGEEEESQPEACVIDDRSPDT
(§2) Tritium-labelled cyclic AMP is hydrolysed to 5′-AMP o by PDE. The 5′-AMP is then further hydrolysed to adenosine by nucleotidase in snake venom. An anion-exchange resin binds all charged nucleotides and leaves [^3H]adenosine as the only labelled compound to be counted by liquid scintillation.
(§3) 50 μl of diluted PDE enzyme was incubated with 50 μl of [^3H]-cAMP (specific activity 25 Ci/mmol) and 11 μl of 50% DMSO (or compound dilution) for 20 minutes at 30° C. The enzyme was diluted in 20 mM Tris HCl pH7.4 (×2.2 final concentration) and [3H]-cAMP was diluted in 10 mM MgCl2, 40 mM Tris HCl pH 7.4 (×2.2 final concentration). Reactions were carried out in Greiner 96 deep well 1 ml master-block. The plates were centrifuged for 9 seconds before the 20 minutes incubation. […] After incubation 200 μl Dowex resin (1×8, 200-400 mesh) was added and the plate shaken for 20 minutes then centrifuged for 3 minutes at 1000×g. 5 μl of supernatant was removed and added to 200 μl of MicroScint-20 in white plates (Greiner 96 well Optiplate) and shaken for 30 minutes before reading on Perkin Elmer TopCount Scintillation Counter. […] values were calculated using GraphPad Prism software (version 8).

The target of a further data set is PDE4B2 (Homo sapiens, UniProt Q07343). It counts as biochemical. On the procedure:
as §1, §2, §3

In another data set the target is PDE4D1 (Homo sapiens, UniProt Q08499). It counts as biochemical. As to the method:
as §1, §2, §3

The next data set deals with PDE4D5 (Homo sapiens, UniProt Q08499). It counts as biochemical. As to the method:
as §1, §2, §3

For a further data set, the target named is PDE4B3 (Homo sapiens, UniProt Q07343). It counts as biochemical. As to the method:
as §1, §2, §3

The next data set concerns the target PDE4D3 (Homo sapiens, UniProt Q08499). It counts as biochemical. As to conditions: value generated by extrapolation of data. On the procedure: as §1, §2, §3
In the next data set the target is PDE4D7 (Homo sapiens, UniProt Q08499). It counts as biochemical. On the procedure:
as §1, §2, §3

For the next data set, the target named is PDE4B1 (Homo sapiens, UniProt Q07343). It counts as biochemical. As to the method: as §1, §2, §3
PDE4B1, sequence (Q07343 whole entry): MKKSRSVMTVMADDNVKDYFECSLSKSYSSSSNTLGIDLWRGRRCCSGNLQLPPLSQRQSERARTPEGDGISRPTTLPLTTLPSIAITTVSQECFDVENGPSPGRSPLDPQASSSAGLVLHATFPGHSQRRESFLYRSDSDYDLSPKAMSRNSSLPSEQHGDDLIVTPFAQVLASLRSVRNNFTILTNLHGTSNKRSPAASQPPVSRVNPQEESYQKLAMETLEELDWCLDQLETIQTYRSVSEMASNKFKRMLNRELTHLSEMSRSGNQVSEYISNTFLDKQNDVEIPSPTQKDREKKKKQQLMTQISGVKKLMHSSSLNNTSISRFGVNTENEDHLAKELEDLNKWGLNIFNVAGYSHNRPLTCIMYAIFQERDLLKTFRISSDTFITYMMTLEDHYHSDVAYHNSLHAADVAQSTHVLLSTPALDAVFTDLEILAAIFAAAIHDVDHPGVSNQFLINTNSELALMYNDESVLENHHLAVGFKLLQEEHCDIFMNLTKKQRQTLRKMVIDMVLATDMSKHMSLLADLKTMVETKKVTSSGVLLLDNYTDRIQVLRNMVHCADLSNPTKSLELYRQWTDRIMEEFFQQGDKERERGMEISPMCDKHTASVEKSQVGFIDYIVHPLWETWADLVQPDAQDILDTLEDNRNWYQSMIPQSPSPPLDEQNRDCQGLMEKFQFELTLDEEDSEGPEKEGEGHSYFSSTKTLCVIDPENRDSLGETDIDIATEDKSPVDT
For a further data set, the target named is PDE4A10 (Homo sapiens, UniProt P27815). It counts as biochemical.
The target of another data set is PDE4A1 (Homo sapiens, UniProt P27815).
Data set [3] addresses purified human recombinant PDE4D protein (Homo sapiens, UniProt Q08499). Briefly: PDE4D scintillation proximity assay (SPA). It counts as biochemical. As to the method: PDE4 enzymatic activity was measured in a scintillation proximity assay using purified human recombinant PDE4D protein.
A general note: In a scintillation proximity assay essentially only radioactivity close to the scintillant gives light.

Another data set deals with PDE4A4 (Homo sapiens, UniProt P27815). It counts as biochemical.
PDE4A4, sequence (P27815 whole entry): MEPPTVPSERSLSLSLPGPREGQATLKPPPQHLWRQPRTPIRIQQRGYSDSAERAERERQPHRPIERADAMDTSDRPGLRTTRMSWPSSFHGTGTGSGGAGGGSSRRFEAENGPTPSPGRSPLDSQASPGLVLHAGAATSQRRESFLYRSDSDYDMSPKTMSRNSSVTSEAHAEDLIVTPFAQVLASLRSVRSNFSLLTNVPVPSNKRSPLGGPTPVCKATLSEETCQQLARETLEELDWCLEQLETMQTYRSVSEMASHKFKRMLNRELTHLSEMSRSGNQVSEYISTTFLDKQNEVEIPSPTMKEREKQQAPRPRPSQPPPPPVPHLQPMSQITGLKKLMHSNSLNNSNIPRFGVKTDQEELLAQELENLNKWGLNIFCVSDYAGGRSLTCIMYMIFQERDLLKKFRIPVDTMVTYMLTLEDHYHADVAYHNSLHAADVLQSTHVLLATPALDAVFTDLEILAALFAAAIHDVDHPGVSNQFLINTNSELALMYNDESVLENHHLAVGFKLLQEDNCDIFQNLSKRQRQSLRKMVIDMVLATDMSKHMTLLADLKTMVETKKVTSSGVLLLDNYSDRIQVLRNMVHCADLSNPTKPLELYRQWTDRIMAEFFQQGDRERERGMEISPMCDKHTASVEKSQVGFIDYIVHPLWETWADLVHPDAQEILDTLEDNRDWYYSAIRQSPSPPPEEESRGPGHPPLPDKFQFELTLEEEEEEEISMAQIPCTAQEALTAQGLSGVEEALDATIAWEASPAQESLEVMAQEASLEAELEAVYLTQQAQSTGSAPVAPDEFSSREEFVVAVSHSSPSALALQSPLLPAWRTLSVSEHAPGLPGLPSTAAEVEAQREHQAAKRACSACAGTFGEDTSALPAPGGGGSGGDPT
The test system of data set [4] is TNF-α secretion from human whole blood. Put plainly: Whole blood TNF-α secretion assay (LPS or SEB stimulated). It counts as cell-based. To be noted: 24 h, SEB 1 μg/mL, donor 2.
Where [5] appears, read: Case 1, PASH syndrome, 20 mg twice daily.
[6] abbreviates: Case 2, PG and HS, 30 plus 40 mg daily.

Here are results for four molecules from US20260069578A1, “TREATMENT OF NEUTROPHILIC DERMATOSES” (UNION THERAPEUTICS A/S, priority 2022, published 2026).

≈ marks a conversion by molar mass, not a printed value.

In general, IC50 refers to the concentration that inhibits the measured activity by half. As a reminder, the Emax is the maximal effect, on the per cent scale that the assay sets.

PDE4D5, sequence (Q08499 1-745 isoform Q08499-6): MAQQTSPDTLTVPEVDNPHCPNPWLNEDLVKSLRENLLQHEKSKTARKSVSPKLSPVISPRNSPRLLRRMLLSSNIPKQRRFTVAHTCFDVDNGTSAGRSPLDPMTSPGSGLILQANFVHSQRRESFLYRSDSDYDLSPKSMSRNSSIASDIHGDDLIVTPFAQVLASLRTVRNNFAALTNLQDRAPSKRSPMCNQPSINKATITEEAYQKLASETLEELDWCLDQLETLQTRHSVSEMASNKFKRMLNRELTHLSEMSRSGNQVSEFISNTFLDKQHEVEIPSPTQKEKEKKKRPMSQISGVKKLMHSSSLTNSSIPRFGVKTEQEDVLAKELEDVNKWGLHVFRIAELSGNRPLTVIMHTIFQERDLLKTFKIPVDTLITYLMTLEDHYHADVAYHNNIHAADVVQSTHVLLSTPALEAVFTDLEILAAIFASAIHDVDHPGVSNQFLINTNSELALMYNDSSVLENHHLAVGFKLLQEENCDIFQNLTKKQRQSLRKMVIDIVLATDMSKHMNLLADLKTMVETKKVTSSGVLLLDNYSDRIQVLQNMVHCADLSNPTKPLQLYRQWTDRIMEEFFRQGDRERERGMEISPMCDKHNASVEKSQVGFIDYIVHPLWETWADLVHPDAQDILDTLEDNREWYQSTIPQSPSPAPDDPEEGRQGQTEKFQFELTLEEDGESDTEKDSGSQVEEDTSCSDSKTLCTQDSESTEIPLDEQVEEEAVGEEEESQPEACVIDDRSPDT
PDE4D1, sequence (Q08499 1-584 isoform Q08499-4): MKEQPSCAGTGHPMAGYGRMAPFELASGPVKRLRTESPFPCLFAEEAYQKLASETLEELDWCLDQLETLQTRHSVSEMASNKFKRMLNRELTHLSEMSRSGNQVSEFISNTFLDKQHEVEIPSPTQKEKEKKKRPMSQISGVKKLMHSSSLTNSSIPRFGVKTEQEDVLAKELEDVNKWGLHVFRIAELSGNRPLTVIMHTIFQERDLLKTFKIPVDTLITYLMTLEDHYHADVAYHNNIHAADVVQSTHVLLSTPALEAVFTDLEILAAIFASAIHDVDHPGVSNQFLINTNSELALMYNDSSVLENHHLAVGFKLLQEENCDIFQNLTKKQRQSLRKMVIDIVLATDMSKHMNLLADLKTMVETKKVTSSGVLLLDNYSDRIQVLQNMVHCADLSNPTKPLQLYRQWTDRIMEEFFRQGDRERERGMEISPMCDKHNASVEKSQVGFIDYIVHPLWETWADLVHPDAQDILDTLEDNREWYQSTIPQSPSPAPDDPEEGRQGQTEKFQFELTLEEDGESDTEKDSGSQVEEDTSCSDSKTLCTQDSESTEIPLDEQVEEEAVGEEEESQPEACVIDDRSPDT
PDE4B3, sequence (Q07343 1-721 isoform Q07343-3): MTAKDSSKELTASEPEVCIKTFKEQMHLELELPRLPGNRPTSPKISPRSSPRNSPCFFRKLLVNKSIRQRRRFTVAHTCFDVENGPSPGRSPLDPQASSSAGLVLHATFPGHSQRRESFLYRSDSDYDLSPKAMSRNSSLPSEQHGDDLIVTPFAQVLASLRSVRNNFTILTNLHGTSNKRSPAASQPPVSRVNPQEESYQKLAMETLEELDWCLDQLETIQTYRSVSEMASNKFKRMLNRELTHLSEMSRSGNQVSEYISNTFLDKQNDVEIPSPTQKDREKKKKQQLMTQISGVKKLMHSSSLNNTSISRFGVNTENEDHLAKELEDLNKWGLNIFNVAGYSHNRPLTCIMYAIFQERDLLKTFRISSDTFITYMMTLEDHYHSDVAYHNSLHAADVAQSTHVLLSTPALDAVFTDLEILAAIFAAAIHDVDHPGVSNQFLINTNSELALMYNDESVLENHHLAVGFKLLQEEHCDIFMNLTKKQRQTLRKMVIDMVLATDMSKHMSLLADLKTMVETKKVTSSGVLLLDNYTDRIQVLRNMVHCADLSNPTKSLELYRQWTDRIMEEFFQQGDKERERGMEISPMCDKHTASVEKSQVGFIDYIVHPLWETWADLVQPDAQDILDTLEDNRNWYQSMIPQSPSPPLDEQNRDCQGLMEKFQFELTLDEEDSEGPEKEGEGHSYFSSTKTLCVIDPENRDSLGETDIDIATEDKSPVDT
PDE4B2, sequence (Q07343 1-564 isoform Q07343-2): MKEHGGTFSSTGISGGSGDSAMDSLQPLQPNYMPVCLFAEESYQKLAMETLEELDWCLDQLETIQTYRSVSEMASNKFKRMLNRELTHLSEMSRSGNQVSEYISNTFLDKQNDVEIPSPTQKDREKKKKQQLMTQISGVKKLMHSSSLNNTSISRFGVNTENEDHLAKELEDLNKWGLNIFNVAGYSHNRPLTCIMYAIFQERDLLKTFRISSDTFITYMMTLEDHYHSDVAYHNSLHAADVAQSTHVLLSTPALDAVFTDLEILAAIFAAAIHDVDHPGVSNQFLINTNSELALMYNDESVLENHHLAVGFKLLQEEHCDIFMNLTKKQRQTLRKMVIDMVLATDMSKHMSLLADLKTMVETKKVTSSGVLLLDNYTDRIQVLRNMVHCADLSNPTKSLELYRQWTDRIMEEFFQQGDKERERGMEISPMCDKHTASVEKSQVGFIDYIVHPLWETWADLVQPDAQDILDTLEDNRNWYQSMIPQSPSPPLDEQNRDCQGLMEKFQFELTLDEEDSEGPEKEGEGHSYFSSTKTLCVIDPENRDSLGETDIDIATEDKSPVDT

For `CCOc1cc([C@@H](CS(C)(=O)=O)N2C(=O)c3cccc(NC(C)=O)c3C2=O)ccc1OC` [Apremilast], in the data set on resistant vegetative PG, the Lesion healing result is “Complete healing of one lesion and partial healing of another”.

In the case of `O=C(Nc1c(Cl)cncc1Cl)c1ccc(OC(F)F)c(OCC2CC2)c1` [Roflumilast, reference compound], the “Health status or body weight gain” value in data set [1] was “did not influence”. Besides, in the data set with LPS-induced TNF-α (oral, 1 and 3 mg/kg), the “Increase of TNF-α levels observed at 1 hour after LPS” value is reported as “attenuated”.

For `O=C(Cc1c(Cl)c[n+]([O-])cc1Cl)c1ccc(OC(F)F)c2c1OC1(CCS(=O)(=O)CC1)O2` [Compound (I), 2-(3,5-Dichloro-1-oxido-pyridine-4-yl)-1-(7-difluoro-methoxy-2′,3′,5′,6′-tetrahydro-spiro[1,3-benzodioxole-2, 4′-(4H)-thiopyran-1′,1′-dioxide]-4-yl)ethanone], the HS lesions result in data set [2] (setting [5]) is given as “gradually improved”; in [2] (setting [6]), “remained calm”. The figures for the pyoderma wounds entry in [2] (setting [5]) and in data set [2] (setting [6]) were “slowly recovered” and “completely healed”, respectively. The IC50 at PDE4D2 is 2.03 nM; against PDE4B2, 5.6 nM; on PDE4D1, 8.67 nM; on PDE4D5, 2.18 nM; at PDE4B3 it was 2.94 nM; at PDE4D3 it was 1.75 nM. Besides, the 50% inhibitory concentration (IC50) against PDE4D7 stood at 2.94 nM; on PDE4B1, 15.7 nM; on PDE4A10, 52.3 nM; on PDE4A1, 16.4 nM; at PDE4A4, 11.3 nM. Further, the “Health status or body weight gain” value in data set [1] is “not to influence”. The “EC50 values, PDE4D SPA” value in [3] was 7.5 ng/mL (≈ 0.0147 µM). The “Increase of TNF-α levels observed at 1 hour after LPS” value with LPS-induced TNF-α (oral, 1, 3 and 10 mg/kg) is recorded as “attenuated”.

In turn, `C[C@@H]1CCN(C(=O)CC#N)C[C@@H]1N(C)c1ncnc2[nH]ccc12` [Tofacitinib] displayed an Emax in [4] of 100%.
